Measured values as given in patent US20190343922A1, “HISTATIN FOR CORNEAL WOUND HEALING AND OCULAR SURFACE DISEASE” (Rapid Pathogen Screening, Inc., priority 2012, published 2019).

Legend:
corneal wounds = experiment: Corneal epithelial defect wound healing in rabbits (fluorescein staining, computerized area determination); format: in vivo, New Zealand White rabbits
Procedure: The study disclosed herein evaluates and quantifies the wound healing effects of histatins on the ocular surface of New Zealand White rabbits.
Epithelial defects are created in the right eye (oculus dexter, OD) of 12 New Zealand White rabbits. Due to animal regulations, bilateral wounding is not permitted. After the epithelial defects are made, the rabbits are randomized into treatment groups. Two (2) groups are treated with different cyclized histatin concentrations: 0.1 μg/ml and 10 μg/ml dissolved into an ophthalmic artificial tear preparation and delivered to the rabbits as an eye drop three times daily. Histatins known in the art, including, but not limited to, amino acid SEQ ID NOS: 1 through 33, which include Hst-1 (SEQ ID NO: 4), Hst-2 (SEQ ID NO: 5), Hst-3 (SEQ ID NO: 6), Hst-5 (SEQ ID NO: 30), and sortase cyclized histatin (SEQ ID NO: 33), may be used in these studies or in treatment protocols. […] This control group should receive the same vehicle identical to the other two groups but without histatin. An over-the-counter artificial tear preferably serves as the vehicle. The initial study included four (4) animals/group in three (3) groups, for a total of twelve rabbits.
Each rabbit group is preferably given moxifloxicin treatment to prevent infection.
(§1) The corneal wounds are then evaluated daily for the corneal wound healing abilities of histatin via fluorescein staining, fluorescent slit lamp biomicrophotography and computerized area determination. Evaluators are masked to the therapeutic treatment given to the rabbits. After healing, two (2) animals from each group are euthanized, and the corneas collected for histological processing (H&E staining with subsequent evaluation by veterinary histopathologist). The decision to perform histopathologic analysis after tissue procurement is made only if there is proven difference in healing between the different treatment groups and the controls. At study termination (study preferably continues for seven days), the remaining animals are euthanized.

rabbit corneas = details: in vivo
Procedure: as §1
The histatin used in this study was cyclized histatin 1.

For “cyclo(DNLPETGGDSHEKRHHGYRRKFHEKHHSHREFPFYGDYGSNYLY) [cyclized histatin 1]”, the Corneal wound size (corneal wounds; 0.1 μg/ml eye drop three times daily, 54 hours post wound) was 0.00 ± 0.00 mm^2, the Corneal wound size (corneal wounds; 0.1 μg/ml eye drop three times daily, 72 hours post wound) was 0.00 ± 0.00 mm^2 and the “Percentage of 1 hour post wound size” value (corneal wounds; 0.1 ug/ml, 0 hours post wound) was 100%. For the same substance, the “Percentage of 1 hour post wound size” value (corneal wounds; 0.1 ug/ml, 6 hours post wound) was 85%, the “Percentage of 1 hour post wound size” value (corneal wounds; 0.1 ug/ml, 24 hours post wound) was 69% and the “Percentage of 1 hour post wound size” value (corneal wounds; 0.1 ug/ml, 30 hours post wound) was 43%. For the same substance, the “Percentage of 1 hour post wound size” value (corneal wounds; 0.1 ug/ml, 48 hours post wound) was 2%, the “Percentage of 1 hour post wound size” value (corneal wounds; 0.1 ug/ml, 54 hours post wound) was 0% and the “Percentage of 1 hour post wound size” value (corneal wounds; 0.1 ug/ml, 72 hours post wound) was 0%. The Corneal wound size (corneal wounds; 10 μg/ml eye drop three times daily, 48 hours post wound) was 0.00 ± 0.07 mm^2, the Corneal wound size (corneal wounds; 10 μg/ml eye drop three times daily, 54 hours post wound) was 0.00 ± 0.00 mm^2 and the Corneal wound size (corneal wounds; 10 μg/ml eye drop three times daily, 72 hours post wound) was 0.00 ± 0.00 mm^2. For the same substance, the “Percentage of 1 hour post wound size” value (corneal wounds; 10 ug/ml, 0 hours post wound) was 100%, the “Percentage of 1 hour post wound size” value (corneal wounds; 10 ug/ml, 6 hours post wound) was 84% and the “Percentage of 1 hour post wound size” value (corneal wounds; 10 ug/ml, 24 hours post wound) was 58%. For the same substance, the “Percentage of 1 hour post wound size” value (corneal wounds; 10 ug/ml, 30 hours post wound) was 43%, the “Percentage of 1 hour post wound size” value (corneal wounds; 10 ug/ml, 48 hours post wound) was 0% and the “Percentage of 1 hour post wound size” value (corneal wounds; 10 ug/ml, 54 hours post wound) was 0%. The “Percentage of 1 hour post wound size” value (corneal wounds; 10 ug/ml, 72 hours post wound) was 0%, the “Healing activity of corneal wounds” value (corneal wounds; 0.1 and 10 μg/ml vs control, rabbits) was “significant dose dependent accelerated healing activity” and the “Wound healing speed compared with control at each time point” value (corneal wounds; wounds treated with 0.1 μg/ml or 10 μg/ml) was “healed faster”. For the same substance, the “Toxicity on pathological analysis of corneas” value (rabbit corneas) was “no toxicity”.
